Results taken from patent US20040082815A1, “Benzophenones, the production thereof and their use for controlling plant pathogenic fungi” (priority 2001, published 2004).

Tested on: Erysiphe graminis forma specialis tritici
Test: Activity against powdery mildew of wheat, protective spray test on wheat seedlings cv. Kanzler
Format: in vivo, Erysiphe graminis forma specialis tritici (on wheat)
Conditions: sprayed to runoff 24 h before inoculation, rated visually after 7 days, untreated plants 90% disease
Method: The active ingredients, separately or jointly, were prepared as a 10% strength emulsion in a mixture of 70% by weight of cyclohexanone, 20% by weight of Nekanil® LN (Lutensol® AP6, wetter with emulsifying and dispersing action based on ethoxylated alkylphenols) and 10% by weight of Wettol® EM (nonionic emulsifier based on ethoxylated castor oil) and diluted with water to give the desired concentration.
Use Example 1—Activity Against Powdery Mildew of Wheat (Erysiphe graminis f. sp. […] f. sp. tritici)
Leaves of wheat seedlings cv. “Kanzler” which have grown in pots were sprayed to runoff point with aqueous preparation of active ingredient made with a stock solution composed of 10% of active ingredient, 63% of cyclohexanone and 27% of emulsifier, and, 24 hours after the spray coating had dried on, dusted with spores of powdery mildew of wheat (Erysiphe graminis forma specialis tritici). The test plants were subsequently placed in a greenhouse at temperatures between 20 and 24° C. and a relative atmospheric humidity of 60 to 90%. After 7 days, the extent of the mildew development was determined visually in % disease of the total leaf area.

Row | SMILES | extent of mildew development, % disease of the total leaf area (4 ppm) | extent of mildew development, % disease of the total leaf area (16 ppm)
1 | COc1cc(C)c(C(=O)c2c(F)ccc(F)c2C)c(OC)c1OC [I.5-02, 2,5-Difluoro-2′,6-dimethyl-4′,5′,6′-trimethoxybenzophenone] | 1% | no disease
2 | COc1cc(C)c(C(=O)c2c(Cl)ccc(Cl)c2C)c(OC)c1OC [I.1-02, 2,5-Dichloro-2′,6-dimethyl-4′,5′,6′-trimethoxybenzophenone] | no disease | no disease
